Earlier results, collected in US20160129117A1, “Novel Boronic Acid Compound Preparation” (NIPPON KAYAKU KABUSHIKI KAISHA, priority 2013, published 2016).
Like-named read-outs stand apart in the source and are kept apart here.

What was measured:
[1] = in vivo

SMILES: CC(C)C[C@H](NC(=O)[C@H](Cc1ccccc1)NC(=O)c1cnccn1)B(O)O [bortezomib]
- incidence of grade 3 peripheral neuropathy (intravenous administration): 16%
- incidence of grade 3 peripheral neuropathy (subcutaneous administration): 6%
- total dose causing the peripheral nerve toxicity [1]: about 30 mg/m^2
